Data reported in patent publication US20120277409A1, “METAL-POLYSACCHARIDE CONJUGATES: COMPOSITIONS, SYNTHESIS AND METHODS FOR CANCER THERAPY” (priority 2007, published 2012).
Entries after “also recorded” stand apart in the source; their conditions may differ. Read-outs that look alike come from different tables or passages of the source.

Key:
[1] = tested on: platinum-resistant ovarian cancer cell line 2008-c13; assay: Flow cytometry (propidium iodide) of apoptosis / sub-G1 fraction; format: cell-based, human; settings: for sub-G1 fraction (hypodiploid cells): 48 hours and 72 hours of drug exposure, same doses
Description: To determine the effectiveness of platinum-polysaccharide conjugate (PC) against platinum-resistant ovarian cancer cells, 2008-c13 cells ([…]) were treated with platinum-polysaccharide conjugate (PC). The cells were trypsinized and centrifuged at 2500 rpm for 5 min. After being washed with 1×PBS two times, cells were fixed with 70% ethanol overnight, washed twice with 1×PBS, and resuspended in 1 mL of propidium iodide (PI) solution (1×10^6 cells/mL). RNase (20 μg/mL) solution was added followed by 1 mL of propydium iodide solution (PI, 50 μg/mL in PBS). Samples were incubated at 37° C. for 15 min, and PI fluorescence was analyzed using a EPIS XL analyzer.
This effect was tested by flow cytometry in the 2008.C13 cell line after 48 hours and 72 hours of drug exposure.

[2] = tested on: platinum-resistant ovarian cancer cell line 2008-c13; assay: TUNEL assay of apoptosis; format: cell-based, human; settings: 48 hours, compared at each dose, P<0.05
Text: DNA fragmentation typical of apoptosis was further determined by the TUNEL assay in three independent experiments.

[3] = tested on: PARP / caspase-3 cleavage in 2008-c13 cells; assay: Western blot of cleaved PARP and cleaved caspase-3; format: cell-based, human; settings: 48 hours; for cleaved PARP expression: 2008-c13 cells; for cleaved caspase-3 expression: 2008.C13 cells
Description: The effect of the platinum-polysaccharide conjugate of Example 1 on tumor cells was analyzed by treating 2008-c13 […] cells with the conjugate, then analyzing the effects on cellular proteins through a Western blot (FIG. 11).
To determine whether apoptosis is induced through a caspase-3-dependent pathway followed by the cleavage of PARP, levels of cleaved caspase-3 and PARP, which form after caspase-3 activation, were determined by Western blot analysis.

2008.C13 cells = assay: Flow cytometric cell-cycle analysis (S-phase arrest); format: cell-based, human; settings: 48 hours
[4] = tested on: p21 and cyclin A in 2008.C13 cells; assay: p21 and cyclin A expression (Northern/Western blot); format: cell-based, human; settings: 48 hours of drug exposure
Description: To elucidate the mechanism underlying S-phase arrest caused by CDDP and PC in 2008.C13 cells, the expression of p21 and cyclin A, which are important for cell-cycle regulation in the S phase, was examined in 2008.C13 cells after 48 hours of drug exposure.

[5] = In vitro determination of relaxivity (T1, 7.0 T); format: physicochemical; settings: in water, Gd 0.01-0.08 mM
Description: Solutions of Gd-EDTA-chitosan and Gd-DTPA were prepared in water at Gd concentrations of 0.01 mM, 0.02 mM, 0.04 mM and 0.08 mM. Spin lattice (T1) relaxivity was measured at 7.0 T. R1 in mM^−1s^−1 was obtained from linear last-squares determination of the slopes of 1/T1 vs [Gd] plot. R1 was calculated as 3.61 and […] for Gd-DTPA and Gd-EDTA-chitosan, respectively.

[6] = tested on: platinum-resistant ovarian cancer cells (2008-c13)
Description: All cells were cultured at 37° C. in a humidified atmosphere containing 5% CO2 in RPMI 1640 medium supplemented with 10% fetal bovine serum and glutamine (2 mM). 2008 or 2008.C13 cells were seeded into 96-well plates (4,000 cells/well) and maintained in RPMI 1640 medium for 24 hours. […] Controls were treated with DMSO or PBS. After cells were treated, their growth and viability were determined by incubating the cells for 1 to 2 hours at 37° C. with 20 μL of tetrazolium substrate. Absorbence was measured at 450 nm using a 96-well Synergy HT-microplate reader (Biotek, Winooski, Vt.) The rate of cell growth inhibition was expressed as a percentage as follows: […]. The experiments were repeated separately three times. Methylene tetrazolium (MTT) dye assay determined the amount of viable cells. Cellular protein content was determined by Lowry assay. The drug concentration that inhibits 50% of cell growth (IC-50) was then determined Data are expressed as the percentage differences compared with controls (OD of cells after treatment/OD of cells without treatment).

[7] = tested on: breast cancer cells (13762NF) tumor; assay: Anticancer effect in breast tumor-bearing rat model; format: in vivo; settings: for tumor volume: single dose (Pt 10 mg/kg or chondroitin only)
Description: Female Fischer 344 rats (125-175 g) were inoculated with breast cancer cells (13762NF, 10^6 cells/rat, s.c. in the hind leg). After 15-20 days and a tumor volume of […], the breast tumor-bearing rats were administered either the platinum-chondroitin (Platinum-polysaccharide) conjugate (PC) or chondroitin alone at doses of 10 mg Pt/kg (platinum (IV)-polysaccharide) or 45 mg/kg (chondroitin). Tumor volumes and body weight were recorded daily for sixty days. Tumor volumes were measured as [length (l)×width (w)×thickness (h)]/2. Loss of body weight of 15% is considered a chemical-induced toxic effect. […] After treatment with platinum-polysaccharide conjugate, tumor tissues were dissected and embedded in […]. The tumor tissue was fixed in paraffin, and stained with hematoxylin and eosin for histological examinations.

Compound	sub-G1 fraction (hypodiploid cells) [1]	apoptotic cells by TUNEL [2]	cleaved PARP expression [3]	cleaved caspase-3 expression [3]	cyclin A expression [4]	p21 expression [4]	R1 (spin lattice T1 relaxivity) [5] [mM⁻¹ s⁻¹]	tumor volume ([7]; 24 hours) [cm^3]	tumor volume ([7]; 94 hrs) [cm^3]	further results
N.N.[Cl][Pt][Cl] [CDDP, cis-diamminedichloroplatinum (II), reference compound]	dose-dependent increase	dose-dependent increase	increased from 2.5 μg/mL to 20 μg/mL	expressed in a pattern similar to that of PARP	Neither p21 nor cyclin A expression was related to the extent of S-phase arrest	Neither p21 nor cyclin A expression was related to the extent of S-phase arrest				maximal S-phase arrest (2008.C13 cells; 20 μg/mL): 84.8%
O=C([O-])CN(CCN(CC(=O)[O-])CC(=O)O)CCN(CC(=O)[O-])CC(=O)O.[Gd+3] [Gd-DTPA, reference compound]							3.61			
Cis-1,2-DACH-dichloro-Pt (IV)-aspartate-chondroitin [PC]	more pronounced increase in the sub-G1 fraction; also recorded: substantially more sub-G1 cells than did CDDP	many more cells experiencing apoptosis; also recorded: much higher levels of apoptosis	significantly increased; also recorded: cleaved PARP expression induced by high-dose (20 μg/mL) PC appeared to be lower than that induced by low-dose PC	comparable to that in the CDDP-treated group, except for the lower expression seen at 5 μg/mL	up-regulated after high-dose PC treatment and was maintained at a low level after low-dose PC treatment	up-regulated with maximal S-phase arrest after low-dose PC treatment, but not after high doses; also recorded: increased p21 expression		5.2661	0.8782	enhancement of tumor killing compared with cisplatin ([6]; 2.5 μg/mL, 48 hours): 5.9 times; enhancement of tumor killing compared with cisplatin ([6]; 2.5 μg/mL, 72 hours): 9.3 times; enhancement of tumor killing compared with cisplatin ([6]; 5 μg/mL, 48 hours): 4.6 times; enhancement of tumor killing compared with cisplatin ([6]; 5 μg/mL, 72 hours): 1.5 times; cell growth inhibition (in words) ([6]; low doses): significantly inhibit cell growth; apoptotic effect by flow cytometry ([1]; 2.5 and 5 μg/mL, compared to cisplatin): significantly enhanced the apoptotic effect; effect against breast tumor growth (in words) ([7]; 10 mg Pt/kg): effective in vivo against breast tumor growth; tumor necrosis (H & E histology) ([7]; 94 hrs post-administration): Extensive necrosis; S-phase arrest (2008.C13 cells; 2.5 μg/mL): 90.3%; S-phase arrest (2008.C13 cells; 5 μg/mL): 90.1%
Gd-EDTA-chitosan							9.59			
chondroitin [reference compound]								5.2591	14.3622	
